{"source": "paper PMC5217690", "about": "(The Journal of Biological Chemistry, 2016)", "key": {"TrmDEC [1]": {"biological_target": "T1, TrmDEC (Escherichia coli, UniProt P0A873, Y86L)", "T1 construct": "gene trmD; full-length, N-terminal His tag (pET28b), expressed in E. coli BL21(DE3), tag kept", "T1 sequence (P0A873 2-255 Y86L)": "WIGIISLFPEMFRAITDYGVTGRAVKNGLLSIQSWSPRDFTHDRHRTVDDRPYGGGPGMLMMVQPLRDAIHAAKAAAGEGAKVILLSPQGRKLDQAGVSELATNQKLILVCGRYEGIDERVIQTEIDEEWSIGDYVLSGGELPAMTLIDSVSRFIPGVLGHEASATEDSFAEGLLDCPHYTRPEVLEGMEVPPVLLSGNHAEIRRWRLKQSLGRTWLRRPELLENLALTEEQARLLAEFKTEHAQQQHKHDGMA", "assay": "ITC", "assay_type": "binding"}, "TrmDEC [2]": {"biological_target": "T2, TrmDEC (Escherichia coli, UniProt P0A873, Y86F)", "T2 construct": "gene trmD; full-length, N-terminal His tag (pET28b), expressed in E. coli BL21(DE3), tag kept", "T2 sequence (P0A873 2-255 Y86F)": "T1 sequence (P0A873 2-255 Y86L) with L85F", "assay": "ITC", "assay_type": "binding"}}, "note": "Numbering of substitutions follows the chain as printed."}
{"smiles": "C[S+](CC[C@H](N)C(=O)O)C[C@H]1O[C@@H](n2cnc3c(N)ncnc32)[C@H](O)[C@@H]1O", "note": "(some centres unmarked) [AdoMet]", "values": [{"measurement": "Kd", "setting": "TrmDEC [1]", "value": 69.9, "unit": "µM"}, {"measurement": "Kd", "setting": "TrmDEC [2]", "value": 27.9, "unit": "µM"}]}
